Results published in ChEMBL document CHEMBL1201862, “PubChem BioAssay data set” (2004).
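Compound exposure: 48 hours, 5 concentrations, 96-well plates. Here, GI50 denotes the concentration required for 50% inhibition of growth.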 Active and inactive are the calls of the source. Cut-off read from the data, not from the text of the source: active = GI50 up to about 1.1 µM and inactive = higher. Where a SMILES comes first, the peptide text is derived from it. The star is where a group is joined. Cbz = O=C(OCc1ccccc1)*; Bn = c1ccc(C*)cc1

Legend:
Assay in all cases: DTP human tumour cell line panel, 48 h
TK-10 = system: TK-10
NCI/ADR-RES = system: NCI/ADR-RES
MDA-MB-231 = system: MDA-MB-231
RPMI-8226 = system: RPMI-8226
SN12C = system: SN12C
SNB-19 = system: SNB-19
SK-MEL-2 = system: SK-MEL-2
Malme-3M = system: Malme-3M
SF-268 = system: SF-268
CAKI-1 = system: CAKI-1
HL-60 = system: HL-60
HOP-92 = system: HOP-92
MOLT-4 = system: MOLT-4
LOX IMVI = system: LOX IMVI
A498 = system: A498
EKVX = system: EKVX
RXF 393 = system: RXF 393
COLO 205 = system: COLO 205
SF-295 = system: SF-295
HCC 2998 = system: HCC 2998

Compound	GI50 (TK-10)	GI50 (NCI/ADR-RES)	GI50 (MDA-MB-231)	GI50 (RPMI-8226)	GI50 (SN12C)	GI50 (SNB-19)	GI50 (SK-MEL-2)	GI50 (Malme-3M)	GI50 (SF-268)	GI50 (CAKI-1)	GI50 (HL-60)	GI50 (HOP-92)	GI50 (MOLT-4)	GI50 (LOX IMVI)	GI50 (A498)	GI50 (EKVX)	GI50 (RXF 393)	GI50 (COLO 205)	GI50 (SF-295)	GI50 (HCC 2998)
COc1ccc2c(c1)CCC(CN1CCN(CCOC(c3ccccc3)c3ccccc3)CC1)C2O (centres undefined)	14.1 µM (inactive)	13.8 µM (inactive)	15.7 µM (inactive)	11 µM (inactive)	13.5 µM (inactive)	18.3 µM (inactive)	17.5 µM (inactive)	17.5 µM (inactive)	16.6 µM (inactive)	15.7 µM (inactive)	2.81 µM (inactive)	14.4 µM (inactive)	11.8 µM (inactive)	17.3 µM (inactive)	10.5 µM (inactive)	11.1 µM (inactive)	14.1 µM (inactive)	12.6 µM (inactive)	18.9 µM (inactive)	4.28 µM (inactive)
COc1ccc(/C=N/n2cnc3[nH]c(C)c(Cc4ccccc4)c3c2=N)cc1	> 100 µM (inactive)	> 100 µM (inactive)	68.4 µM (inactive)	34.8 µM (inactive)	92 µM (inactive)	> 100 µM (inactive)	> 100 µM (inactive)	> 100 µM (inactive)	72.9 µM (inactive)	> 100 µM (inactive)	> 100 µM (inactive)	29.2 µM (inactive)	52.1 µM (inactive)		67.8 µM (inactive)	> 100 µM (inactive)	19.2 µM (inactive)	75.9 µM (inactive)	53.3 µM (inactive)	> 100 µM (inactive)
COc1cc(OC)c2nc(C)c3c(c2c1)OCC3	> 100 µM (inactive)	> 100 µM (inactive)	12.6 µM (inactive)	> 100 µM (inactive)	89.3 µM (inactive)	47.3 µM (inactive)	> 100 µM (inactive)	> 100 µM (inactive)	47.2 µM (inactive)	19.8 µM (inactive)	> 100 µM (inactive)	40.6 µM (inactive)	> 100 µM (inactive)	> 100 µM (inactive)	> 100 µM (inactive)	75.2 µM (inactive)	22.6 µM (inactive)	> 100 µM (inactive)	34 µM (inactive)	> 100 µM (inactive)
Nc1c2c(=O)[nH]c(=O)c2c(N)c2c(=O)c3ccccc3c(=O)c12	9.68 µM (inactive)	2.11 µM (inactive)	3.02 µM (inactive)	2.05 µM (inactive)	1.52 µM (inactive)	3.29 µM (inactive)	2.07 µM (inactive)	0.222 µM (active)	2.65 µM (inactive)	3.5 µM (inactive)	2 µM (inactive)	12.9 µM (inactive)	3.68 µM (inactive)	1.23 µM (inactive)	1.12 µM (inactive)	3.17 µM (inactive)	3.57 µM (inactive)	0.687 µM (active)	1.59 µM (inactive)	4.48 µM (inactive)
COC(=O)C(Cc1ccc(O)cc1)NC(=O)C(COCc1ccccc1)NC(=O)OCc1ccccc1 (centres undefined) (Cbz-Ser(Bn)-Tyr-OMe; configuration not given here)	20 µM (inactive)	19.6 µM (inactive)	18.8 µM (inactive)	74.6 µM (inactive)	18.4 µM (inactive)	16.9 µM (inactive)	23 µM (inactive)	21.3 µM (inactive)	17.5 µM (inactive)	20.2 µM (inactive)	> 100 µM (inactive)	25.5 µM (inactive)	> 100 µM (inactive)	22.2 µM (inactive)	26.3 µM (inactive)	22.5 µM (inactive)	18.7 µM (inactive)	17.1 µM (inactive)	16.5 µM (inactive)	4.06 µM (inactive)
